Reference: ChEMBL document CHEMBL1649177, “Further identification of CTX-M-2 extended-spectrum beta-lactamase in Pseudomonas aeruginosa” (2009)
≈ marks a conversion by molar mass, not a printed value. Calls of active or inactive are those of the source. The rule behind the calls is not given here.

tested on: Pseudomonas aeruginosa; assay: Antimicrobial activity against extended spectrum beta-lactamase CTX-M-2-producing Pseudomonas aeruginosa isolate P6208 by Etest; format: functional

Compound | MIC [µg/mL]
CO/N=C(\C(=O)N[C@@H]1C(=O)N2C(C(=O)[O-])=C(C[N+]3(C)CCCC3)CS[C@H]12)c1csc(N)n1 [CEFEPIME] | > 256
CO/N=C(\C(=O)N[C@@H]1C(=O)N2C(C(=O)O)=C(COC(C)=O)CS[C@H]12)c1csc(N)n1 [CEFOTAXIME] | > 32
CC(C)(O/N=C(\C(=O)N[C@@H]1C(=O)N2C(C(=O)[O-])=C(C[n+]3ccccc3)CS[C@H]12)c1csc(N)n1)C(=O)O [CEFTAZIDIME] | 2 (≈ 3.66 µM)
C[C@@H](O)[C@H]1C(=O)N2C(C(=O)O)=C(SCCNC=N)C[C@H]12 [IMIPENEM ANHYDROUS] | 1 (≈ 3.34 µM)

tested on: Pseudomonas aeruginosa; assay: Antimicrobial activity against extended spectrum beta-lactamase CTX-M-2-producing Pseudomonas aeruginosa isolate P6208; format: functional, organism-based

Compound | Activity
NCC[C@H](O)C(=O)N[C@@H]1C[C@H](N)[C@@H](O[C@H]2O[C@H](CN)[C@@H](O)[C@H](O)[C@H]2O)[C@H](O)[C@H]1O[C@H]1O[C@H](CO)[C@@H](O)[C@H](N)[C@H]1O | Active
NC[C@H]1O[C@H](O[C@H]2[C@H](O)[C@@H](O[C@H]3O[C@H](CO)[C@@H](O)[C@H](N)[C@H]3O)[C@H](N)C[C@@H]2N)[C@H](N)C[C@@H]1O | Active
COLISTIN | Active
GENTAMICIN | Active
